In assay [1] the target is DNA dC->dU-editing enzyme APOBEC-3A (Homo sapiens, UniProt P31941). The assay can be described thus: APOBEC3A DNA deaminase inhibitors, dose response, biochemical (AID 504722). Type of assay: functional.
For assay [2], the target named is DNA dC->dU-editing enzyme APOBEC-3G (Homo sapiens, UniProt Q9HC16). Briefly: Dose Response confirmation of small molecule APOBEC3G DNA Deaminase Inhibitors via a fluorescence-based single-stranded DNA deaminase assay. [Related pubchem assays (depositor defined):AID493012, AID493028]. Format: functional.
Assay [3] relates to HeLa. The assay can be described thus: HeLa cell cytotoxicity, dose response, cytotoxicity control, 24 h, cherry-picked samples (AID 504726).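 Also: potency for cytotoxicity as loss of luminescence signal.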 Format: functional, cell-based. Particulars: Homo sapiens.
Assay [4] can be described thus: A cytotoxicity screen of small molecule inhibitors of the PhoP region in Salmonella typhi identified in the primary screen. [Related pubchem assays: 1850, 1864, 1985 ]. Type of assay: functional.
Assay [5] concerns the target Cytochrome P450 2C9 (Homo sapiens, UniProt P11712). Particulars: Potency.
Assay [6] addresses Melanin-concentrating hormone receptor 1 (Homo sapiens, UniProt Q99705). Briefly: Fluorescence-based counterscreen for antagonists of the G-protein coupled receptor 7 (GPR7): cell-based high throughput dose response assay to identify antagonists of the melanin-concentrating hormone receptor 1 (MCHR1). Type of assay: functional. A general note: A counterscreen serves to expose hits that act by an unwanted route or on another target.

Assay [7] can be described thus: HIV-1 Env-mediated cell fusion inhibitors, dose response, CCR5-tropic Env (AID 2279). Format: functional.
In assay [8] the target is T1, Calpain-2 catalytic subunit (Sus scrofa, UniProt P43367).
T1 sequence (P43367 whole entry): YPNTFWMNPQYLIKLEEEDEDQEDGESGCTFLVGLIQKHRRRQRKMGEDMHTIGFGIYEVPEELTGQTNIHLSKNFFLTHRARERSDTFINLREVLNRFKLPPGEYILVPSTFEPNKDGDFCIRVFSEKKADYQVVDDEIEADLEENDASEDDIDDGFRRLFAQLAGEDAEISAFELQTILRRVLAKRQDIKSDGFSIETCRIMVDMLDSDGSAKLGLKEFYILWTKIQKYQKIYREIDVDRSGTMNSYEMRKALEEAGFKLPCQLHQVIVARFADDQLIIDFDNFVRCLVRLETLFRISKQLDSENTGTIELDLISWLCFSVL
Briefly: pig calpain II inhibitor potency, dose response, biochemical, fluorogenic peptide substrate (AID 1420). Type of assay: functional.

Assay [9] addresses Eukaryotic translation initiation factor 4E (Mus musculus, UniProt P63073). The assay can be described thus: eIF4E–eIF4G protein interaction inhibitors, dose response, biochemical, TR-FRET (AID 855).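 Also: potency for disrupting eIF4E binding to eIF4GI seen as loss of FRET.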 Format: functional. In general terms: TR-FRET usually uses a lanthanide donor and a delayed reading to cut background.
The target of assay [10] is Heat shock protein HSP 90-alpha (Homo sapiens, UniProt P07900). Type of assay: functional, organism-based.
The target of assay [11] is Neurotensin receptor type 1 (Homo sapiens, UniProt P30989). Format: functional.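 Also: Image-based confirmatory dose-response assay measuring agonist activity at NTR1; NTR1-expressing U2OS osteosarcoma cells imaged for beta-arrestin GFP spot formation; agonist potency where compounds increase beta-arrestin recruitment.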
Assay [12] deals with CHO. Briefly: cytotoxicity in TLR9-MyD88 CHO cells, dose response, cytotoxicity control for TLR9-MyD88 binding inhibitor project, cell-based, luminescence (AID 588339).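 Also: CHO cells stably coexpressing TLR9 and MyD88 fusions from primary screen; compound exposure lasted 48 hours before viability readout.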 Type of assay: functional, hamster. Particulars: Cricetulus griseus.
Assay [13] addresses Beta Lactamase (Pseudomonas aeruginosa, UniProt Q932Y6). Briefly: beta-lactamase reporter inhibitor potency, dose response, artefact control for TLR9-MyD88 binding inhibitor project, BLA reporter cells, FRET fluorescence (AID 588341).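 Also: cell based assay in CHO-K1 cells stably expressing beta-lactamase.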 Type of assay: cell-based.
The test system of assay [14] is INS1. Briefly: beta cell apoptosis inhibitors, cytokine rescue, dose response, luminescence, retest (AID 449756).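 Also: cell death triggered by IL-1 beta plus TNF-alpha plus IFN-gamma mixture; protective hits raise ATP signal compared with cytokine alone wells.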 Format: functional, cell-based. Particulars: Rattus norvegicus.
The nature of assay [15]: MDA-MB-231 cell growth inhibition, dose response, cytotoxicity control for RAD54 inhibitor project, CellTiter-Glo luminescence, cherry-pick (AID 651692). Format: functional, cell-based. On the technique in general: In ATP-based viability assays light output follows the ATP content of the culture.
Assay [16] concerns the target T2, DNA repair and recombination protein RAD54-like (Homo sapiens, UniProt Q92698).
T2 sequence (Q92698 whole entry): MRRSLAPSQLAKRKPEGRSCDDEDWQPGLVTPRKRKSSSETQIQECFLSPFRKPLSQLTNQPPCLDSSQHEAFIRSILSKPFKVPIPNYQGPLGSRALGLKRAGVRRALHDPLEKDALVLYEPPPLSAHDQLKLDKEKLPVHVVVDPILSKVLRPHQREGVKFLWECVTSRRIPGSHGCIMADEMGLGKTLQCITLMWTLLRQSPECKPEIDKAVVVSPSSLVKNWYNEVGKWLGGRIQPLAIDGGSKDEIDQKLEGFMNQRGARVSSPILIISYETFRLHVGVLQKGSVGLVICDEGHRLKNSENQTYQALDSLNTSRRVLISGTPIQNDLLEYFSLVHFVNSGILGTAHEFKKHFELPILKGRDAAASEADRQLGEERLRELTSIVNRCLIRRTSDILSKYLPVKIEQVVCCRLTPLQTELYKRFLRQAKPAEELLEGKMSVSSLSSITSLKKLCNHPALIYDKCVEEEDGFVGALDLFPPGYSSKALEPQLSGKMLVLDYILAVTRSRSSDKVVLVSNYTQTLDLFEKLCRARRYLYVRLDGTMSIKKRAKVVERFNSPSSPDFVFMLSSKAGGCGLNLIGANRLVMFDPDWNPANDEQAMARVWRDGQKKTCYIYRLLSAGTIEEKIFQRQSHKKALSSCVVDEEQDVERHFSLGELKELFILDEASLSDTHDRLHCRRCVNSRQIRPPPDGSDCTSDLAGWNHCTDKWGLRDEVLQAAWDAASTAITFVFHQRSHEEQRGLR
The assay can be described thus: inhibitors of human RAD54 branch migration, confirmation, biochemical, fluorescence, cherry-picked samples, dose series (AID 651657). Type of assay: functional.

The target of assay [17] is SWI/SNF-related matrix-associated actin-dependent regulator of chromatin subfamily A member 2 (Homo sapiens, UniProt P51531). Briefly: Luminescence-based cell-based high throughput dose response assay to identify activators of the function of SWI/SNF related, matrix associated, actin dependent regulator of chromatin, subfamily a, member 2 (SMARCA2, BRM). Format: functional.

The nature of assay [18]: Counterscreen for activators of the function of SWI/SNF related, matrix associated, actin dependent regulator of chromatin, subfamily a, member 2 (SMARCA2, BRM): Luminescence-based cell-based high throughput dose response assay to identify non-selective compounds using the VP16 reporter assay. Type of assay: functional.
The target of assay [19] is Paired box protein Pax-8 (Homo sapiens, UniProt Q06710). The assay can be described thus: inhibitors of PAX8-driven TPO luciferase reporter, dose response, RMG-I cells, cherry-pick (AID 687027).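 Also: luciferase reporter driven by Pax8 target thyroperoxidase promoter measured by SteadyGlo luminescence.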 Type of assay: functional, cell-based.
Assay [20] in a line: non-specific cell cytotoxicity, dose response, cytotoxicity control for PAX8 inhibitor project, plate reader, dry powder samples (AID 743021). Type of assay: functional, cell-based.
Assay [21] has as its target ORF 73 (Human herpesvirus 8, UniProt O40947). The assay can be described thus: inhibitors of C-LANA binding to LBS DNA, dose response, biochemical, fluorescence polarization, cherry-picked samples (AID 504725).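 Also: fluorescence polarization of a labeled DNA duplex reporting LANA DNA binding; potency is for inhibitors that block LANA binding to the DNA.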 Also noted: species or system Human gammaherpesvirus 8.
Assay [22] concerns the target T3, Voltage-gated N-type calcium channel alpha-1B subunit/Amyloid beta A4 precursor protein-binding family A member 1 (Homo sapiens, UniProt Q00975+Q02410). Type of assay: protein assay.
The target of assay [23] is NS3 (Hepatitis C virus, UniProt A3EZJ3). The assay can be described thus: PubChem AID 2173. Also noted: species or system Hepacivirus hominis.
Assay [24] addresses T3, Voltage-gated N-type calcium channel alpha-1B subunit/Amyloid beta A4 precursor protein-binding family A member 1. Type of assay: protein assay. This is another data set of the same source.
The nature of assay [25]: inhibitors of Bluetongue virus cytopathic effect, confirmation, arbovirus, BSR cells (AID 1250).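 Also: protection from viral cytopathic effect measured as cell viability by ATP luminescence.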 Type of assay: functional.
The target in assay [26] is Induced myeloid leukemia cell differentiation protein Mcl-1 (Homo sapiens, UniProt Q07820). Format: functional.
The target of assay [27] is Cytochrome P450 2C19 (Homo sapiens, UniProt P33261). Briefly: qHTS Assay for Inhibitors and Substrates of Cytochrome P450 2C19. [Related pubchem assays: 410 ]. Format: ADME. Particulars: read-out: Potency.
The target in assay [28] is Cytochrome P450 3A4 (Homo sapiens, UniProt P08684). Particulars: Potency.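 Also: confirmatory qHTS run detecting inhibitors and substrates of CYP3A4.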

The structures appear in SMILES notation. The source made the active and inactive calls.

T3 sequence (Q00975 whole entry): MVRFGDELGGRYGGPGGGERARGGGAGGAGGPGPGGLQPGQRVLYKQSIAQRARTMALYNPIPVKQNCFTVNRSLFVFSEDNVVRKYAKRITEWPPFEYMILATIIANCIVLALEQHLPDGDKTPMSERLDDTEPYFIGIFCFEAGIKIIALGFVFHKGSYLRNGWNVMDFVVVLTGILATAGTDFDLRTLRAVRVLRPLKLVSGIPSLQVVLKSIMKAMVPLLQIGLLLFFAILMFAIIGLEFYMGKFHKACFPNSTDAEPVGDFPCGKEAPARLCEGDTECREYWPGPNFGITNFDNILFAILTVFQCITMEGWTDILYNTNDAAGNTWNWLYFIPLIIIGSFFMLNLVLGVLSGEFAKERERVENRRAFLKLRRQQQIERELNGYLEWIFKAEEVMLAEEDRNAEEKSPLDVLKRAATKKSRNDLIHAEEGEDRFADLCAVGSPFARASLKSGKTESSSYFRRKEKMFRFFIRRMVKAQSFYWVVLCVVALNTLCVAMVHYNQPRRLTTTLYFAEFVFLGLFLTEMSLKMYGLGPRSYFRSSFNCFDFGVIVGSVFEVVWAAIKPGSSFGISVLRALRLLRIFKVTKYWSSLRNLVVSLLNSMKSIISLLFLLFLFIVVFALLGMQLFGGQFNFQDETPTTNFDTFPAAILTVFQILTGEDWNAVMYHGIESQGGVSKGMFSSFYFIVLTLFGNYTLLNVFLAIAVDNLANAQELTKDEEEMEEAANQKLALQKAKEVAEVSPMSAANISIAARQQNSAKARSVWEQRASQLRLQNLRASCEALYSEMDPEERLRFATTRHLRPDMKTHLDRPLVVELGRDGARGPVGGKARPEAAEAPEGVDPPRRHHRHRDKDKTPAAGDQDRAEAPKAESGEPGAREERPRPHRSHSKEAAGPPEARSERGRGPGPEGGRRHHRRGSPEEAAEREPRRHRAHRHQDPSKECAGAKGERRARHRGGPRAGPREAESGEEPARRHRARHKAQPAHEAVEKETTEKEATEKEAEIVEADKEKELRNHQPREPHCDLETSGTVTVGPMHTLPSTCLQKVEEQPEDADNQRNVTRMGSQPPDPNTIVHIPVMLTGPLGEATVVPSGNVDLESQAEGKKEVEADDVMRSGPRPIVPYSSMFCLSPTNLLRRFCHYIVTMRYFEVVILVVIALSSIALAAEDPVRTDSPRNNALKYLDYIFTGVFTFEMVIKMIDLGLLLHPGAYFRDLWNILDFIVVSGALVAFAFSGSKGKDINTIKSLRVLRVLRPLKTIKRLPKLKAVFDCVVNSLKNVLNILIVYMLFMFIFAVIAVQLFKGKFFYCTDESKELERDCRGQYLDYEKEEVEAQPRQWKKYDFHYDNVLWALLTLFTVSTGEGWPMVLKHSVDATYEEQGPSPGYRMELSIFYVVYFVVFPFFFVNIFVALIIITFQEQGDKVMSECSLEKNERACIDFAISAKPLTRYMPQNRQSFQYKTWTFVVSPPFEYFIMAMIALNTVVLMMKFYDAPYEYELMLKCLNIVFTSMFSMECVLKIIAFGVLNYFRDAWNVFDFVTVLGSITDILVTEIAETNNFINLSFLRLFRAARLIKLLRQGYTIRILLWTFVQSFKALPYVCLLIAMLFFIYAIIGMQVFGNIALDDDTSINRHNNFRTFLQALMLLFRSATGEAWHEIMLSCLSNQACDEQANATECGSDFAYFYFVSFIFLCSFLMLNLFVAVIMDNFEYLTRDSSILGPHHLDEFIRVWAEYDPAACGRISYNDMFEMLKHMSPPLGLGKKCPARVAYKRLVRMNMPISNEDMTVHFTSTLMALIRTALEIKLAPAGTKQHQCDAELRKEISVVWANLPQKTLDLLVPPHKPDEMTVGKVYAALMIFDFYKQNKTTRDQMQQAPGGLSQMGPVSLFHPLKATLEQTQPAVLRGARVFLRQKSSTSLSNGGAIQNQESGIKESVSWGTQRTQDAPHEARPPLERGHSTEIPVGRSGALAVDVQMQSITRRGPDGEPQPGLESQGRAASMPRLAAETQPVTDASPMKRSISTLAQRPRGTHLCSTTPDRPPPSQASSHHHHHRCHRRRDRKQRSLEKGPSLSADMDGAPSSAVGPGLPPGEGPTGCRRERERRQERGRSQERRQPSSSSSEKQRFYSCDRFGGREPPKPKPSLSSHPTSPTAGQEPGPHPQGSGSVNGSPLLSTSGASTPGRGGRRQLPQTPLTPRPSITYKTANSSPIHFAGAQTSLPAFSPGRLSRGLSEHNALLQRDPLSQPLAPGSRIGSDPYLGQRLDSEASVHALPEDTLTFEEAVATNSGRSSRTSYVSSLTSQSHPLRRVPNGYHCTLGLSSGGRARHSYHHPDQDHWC
T3 sequence (Q02410 whole entry): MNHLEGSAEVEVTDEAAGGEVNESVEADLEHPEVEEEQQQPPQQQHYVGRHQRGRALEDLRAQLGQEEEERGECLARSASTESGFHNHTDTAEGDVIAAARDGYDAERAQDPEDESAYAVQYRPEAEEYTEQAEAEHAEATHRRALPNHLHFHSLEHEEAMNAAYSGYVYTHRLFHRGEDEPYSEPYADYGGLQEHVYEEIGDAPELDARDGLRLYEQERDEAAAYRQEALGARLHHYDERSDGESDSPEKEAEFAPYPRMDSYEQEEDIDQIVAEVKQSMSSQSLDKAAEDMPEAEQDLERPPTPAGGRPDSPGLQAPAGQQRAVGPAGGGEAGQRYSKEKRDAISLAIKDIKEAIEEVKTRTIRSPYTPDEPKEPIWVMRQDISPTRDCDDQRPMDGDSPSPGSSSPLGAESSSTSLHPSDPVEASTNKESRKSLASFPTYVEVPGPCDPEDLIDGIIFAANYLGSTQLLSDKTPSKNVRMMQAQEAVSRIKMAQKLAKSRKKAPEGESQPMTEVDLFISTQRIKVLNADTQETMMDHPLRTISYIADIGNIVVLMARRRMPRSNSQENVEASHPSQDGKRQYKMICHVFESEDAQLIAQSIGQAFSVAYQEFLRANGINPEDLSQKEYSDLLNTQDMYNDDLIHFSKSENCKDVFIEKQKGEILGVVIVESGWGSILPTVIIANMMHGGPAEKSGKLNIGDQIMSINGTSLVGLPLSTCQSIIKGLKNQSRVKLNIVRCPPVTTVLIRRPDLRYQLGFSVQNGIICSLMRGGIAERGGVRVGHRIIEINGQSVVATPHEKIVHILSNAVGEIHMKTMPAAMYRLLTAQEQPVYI
Chain of NS3 (A3EZJ3 whole entry): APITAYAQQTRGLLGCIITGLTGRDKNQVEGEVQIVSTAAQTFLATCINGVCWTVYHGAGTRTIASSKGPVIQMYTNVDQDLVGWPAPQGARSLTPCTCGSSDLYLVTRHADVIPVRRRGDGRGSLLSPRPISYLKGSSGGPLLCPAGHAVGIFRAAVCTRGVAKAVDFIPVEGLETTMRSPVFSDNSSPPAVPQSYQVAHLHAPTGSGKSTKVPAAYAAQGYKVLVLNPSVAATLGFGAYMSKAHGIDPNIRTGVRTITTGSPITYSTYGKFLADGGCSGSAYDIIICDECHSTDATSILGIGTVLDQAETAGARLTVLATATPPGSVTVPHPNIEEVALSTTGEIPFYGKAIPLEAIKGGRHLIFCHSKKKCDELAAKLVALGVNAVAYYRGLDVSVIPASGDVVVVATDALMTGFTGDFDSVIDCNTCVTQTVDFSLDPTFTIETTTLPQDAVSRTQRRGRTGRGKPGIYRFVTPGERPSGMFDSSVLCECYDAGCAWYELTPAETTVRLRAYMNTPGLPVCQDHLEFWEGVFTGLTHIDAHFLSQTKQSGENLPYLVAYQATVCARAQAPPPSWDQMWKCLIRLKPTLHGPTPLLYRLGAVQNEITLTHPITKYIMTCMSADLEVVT
Chain of Cytochrome P450 2C9 (P11712 whole entry): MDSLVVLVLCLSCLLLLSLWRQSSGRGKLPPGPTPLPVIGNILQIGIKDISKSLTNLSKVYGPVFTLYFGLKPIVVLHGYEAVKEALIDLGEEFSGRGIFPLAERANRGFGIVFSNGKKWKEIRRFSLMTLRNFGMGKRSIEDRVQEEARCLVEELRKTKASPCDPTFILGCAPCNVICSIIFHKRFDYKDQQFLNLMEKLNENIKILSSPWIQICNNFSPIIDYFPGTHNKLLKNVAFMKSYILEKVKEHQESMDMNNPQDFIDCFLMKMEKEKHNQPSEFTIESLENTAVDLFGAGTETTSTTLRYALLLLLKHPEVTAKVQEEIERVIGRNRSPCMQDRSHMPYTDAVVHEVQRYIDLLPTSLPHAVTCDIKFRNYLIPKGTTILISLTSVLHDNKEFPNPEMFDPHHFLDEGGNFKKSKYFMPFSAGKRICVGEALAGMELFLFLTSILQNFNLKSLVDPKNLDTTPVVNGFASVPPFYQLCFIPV
Chain of Eukaryotic translation initiation factor 4E (P63073 whole entry): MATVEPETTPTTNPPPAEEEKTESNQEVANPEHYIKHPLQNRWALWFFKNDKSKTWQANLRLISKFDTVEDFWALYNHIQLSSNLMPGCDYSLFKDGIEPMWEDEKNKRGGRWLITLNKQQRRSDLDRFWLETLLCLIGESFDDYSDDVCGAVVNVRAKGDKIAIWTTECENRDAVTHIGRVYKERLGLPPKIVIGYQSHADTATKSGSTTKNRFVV
Chain of Cytochrome P450 3A4 (P08684 whole entry): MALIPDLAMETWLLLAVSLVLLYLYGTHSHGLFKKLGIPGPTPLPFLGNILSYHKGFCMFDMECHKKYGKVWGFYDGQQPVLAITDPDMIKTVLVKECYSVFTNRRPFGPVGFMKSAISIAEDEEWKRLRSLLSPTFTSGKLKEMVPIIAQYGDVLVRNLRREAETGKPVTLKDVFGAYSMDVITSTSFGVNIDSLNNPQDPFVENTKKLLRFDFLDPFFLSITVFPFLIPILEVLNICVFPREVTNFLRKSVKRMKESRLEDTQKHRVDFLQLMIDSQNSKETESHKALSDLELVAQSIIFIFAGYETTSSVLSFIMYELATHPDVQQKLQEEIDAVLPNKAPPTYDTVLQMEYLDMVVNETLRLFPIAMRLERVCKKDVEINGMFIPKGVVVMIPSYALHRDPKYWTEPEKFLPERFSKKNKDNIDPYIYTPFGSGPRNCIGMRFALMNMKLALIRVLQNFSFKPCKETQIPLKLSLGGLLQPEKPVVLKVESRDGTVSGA

In general, IC50 refers to the concentration needed to halve the response being measured. Turning to `Sc1nnc(-c2cccnc2)n1/N=C/C=C/c1ccccc1`, the IC50 in assay [1] is > 100 µM (inactive); in assay [2], 2.33 µM (active).

For the molecule `CC(Sc1ncccn1)C(=O)NNC(=O)c1cccc(Cl)c1` (stereo not drawn), the AC50 in assay [3] is 46.6 µM (active).

One may read the EC50 as the midpoint of the concentration-response curve. Consider `NC1=NC2(CCCCC2)n2c(nc3ccccc32)N1`, for which, in [4], the concentration giving a half-maximal response (EC50) is > 50 µM (active).

As for `CC(=O)c1ccc(OCc2ccccc2)c(C)c1O`, the AC50 in [5] was 2 µM (inconclusive).

As to `COc1cccc(CC2(CO)CCCN(Cc3c(C)cc(C)cc3-n3cccn3)C2)c1` (stereo not drawn), the IC50 in assay [6] is given as 12.6 µM (not active).

`CCCCCCCCCCCCCCCC[n+]1ccn(CC(C)=O)c1`: the IC50 is 4.25 µM (active) in assay [7], 21.1 µM (not active) in assay [8] and 10.1 µM (active) in assay [9]. For the same molecule, the AC50 in assay [10] is 2.86 µM (active).

As to `O=S(=O)(Nc1ncccn1)c1ccc(NC(=S)Nc2cccc(Cl)c2)cc1`, the EC50 in assay [4] is > 50 µM (active).

With `COc1ccc(Cn2cc3c(-c4ccc(F)cc4)nnc-3c3cc(OC)c(OC)cc32)cc1`, the 50% effective concentration (EC50) was 5.72 µM (active) in assay [11], > 91.2 µM (inactive) in assay [17] and > 91.2 µM (inactive) in assay [18]. The IC50 in assay [12] was 11.9 µM (inactive); in assay [13], 5.58 µM (active). Moreover, the AC50 is 6.94 µM (active) in assay [14]; 15.3 µM (active) in assay [15]; 7.21 µM (active) in assay [16]; 12.9 µM (active) in assay [19]; 29.5 µM (active) in [20].

For `O=c1ccc2cc3c4c(c2o1)CCCN4CCC3`, in [21], the AC50 was 12.6 µM (active).

On to `O=C(Nc1ccc(-c2nc3ccccc3[nH]2)cc1)c1ccccc1NS(=O)(=O)c1ccc(F)cc1`, for which the IC50 in assay [7] is > 50 µM (active).

In the case of `Cc1ccc(-n2cccc2/C=C2\C(=N)N3N=C(c4ccco4)SC3=NC2=O)cc1`, the IC50 is 8.99 µM (active) in assay [22]; 5.31 µM (active) in [23]; > 50 µM (inactive) in [24]; 26 µM (active) in [25]; 1.7 µM (active) in assay [26]; 50 µM (inactive) in assay [9].

Consider `O=C(Nc1nc(-c2ccco2)c(-c2ccco2)s1)C1CCC1`, for which the IC50 in [23] was 30.4 µM (not active).

In the case of `COc1ccc(OC2C=CC(C#Cc3ccc(C(C)(C)C)cc3)OC2CO)cc1` (stereo not drawn), the results for the AC50 in [27], in assay [28] and in [5] were 2.51 µM (inconclusive), 3.98 µM (inconclusive) and 0.398 µM (inconclusive), respectively.

The values above are taken from ChEMBL document CHEMBL1201862, “PubChem BioAssay data set” (2004).
